Marks after values point to notes of the source that are not given here.
Experiments:
male Wistar rats [1] = assay: Effect of esterified and non-esterified TTA on hepatic triacylglycerol content; type: in vivo, rat; details: 6 days; for hepatic Triacylglycerol content: fed 1 mmole TTA/day/kg body weight, control 3.71 ± 0.50
Excerpt: (§1) Male wistar rats (4-5 rats in each treatment group) were fed TTA, TTA-PC or TTA-TAG at equimolar doses of TTA (1 mmole/day/kg body weight) for 6 days. Control rats received only 0.5% CMC. The rats were sacrificed and evaluated for lipid lowering effects, increased fatty acid oxidation, and activity of key mitochondrian enzymes, carnitine palmitoyltransferase-II, 3-hydroxy-3-methylglutharyl-CoA synthase and fatty acyl-CoA oxidases.
(§2) Male Wistar Charles River rats weighing 200-250 g at the start of the experiment were housed in metal wire cages in a temperature (22±1° C.) and light-controlled (light from 7.00 a.m. to 7.00 p.m.) room. They were given free access to chow and water. They were fed a Standard Laboratory Rat Chow R-34-EWOS-ALAB (EWOS Sweden) grower rat maintenance chow. Two rats were housed per cage. The animals were acclimatized for at least 5 days before the start of the experiments. Weight gain and food intake were recorded daily. TTA and esterified TFAs (1,2-Di(1,2-Di(tetradecylthioacetoyl)-sn -glycero-3-phosphocholine (TTA-PC) and Glyceryl 1,2,3-Tri(tetradecylthioacetate) (triacylglycerol) (TTA-TAG)) were suspended in 0.5% carboxymethylcellulose (CMC) and administered by gastric intubation in a final volume of 0.8-1.2 ml once a day for 6 days.

male Wistar rats [2] = assay: Effect of esterified and non-esterified TTA on plasma lipids, fed for 6 days; type: in vivo, rat; details: for plasma Triacylglycerol / plasma Cholesterol: fed at equimolar doses of TTA, 1 mmole/day/kg body weight; for plasma Triacylglycerol: control (0.5% CMC) 1.20 ± 0.35; for plasma Cholesterol: control (0.5% CMC) 1.84 ± 0.25
Excerpt: as §1, §2
At the end of the experiments the animals were anaesthetized with Fluorane (0.4 ml/100 g body weight) and cardiac puncture was performed to obtain blood samples in EDTA containing vacutainers. Plasma was prepared and triacylglycerol and cholesterol were measured using the Monotest enzymatic kit (Boehringer Mannheim, Germany).

[3] = system: mitochondrial carnitine palmitoyltransferase-II; assay: Mitochondrial carnitine palmitoyltransferase-II activity after feeding; type: in vivo, rat; details: mitochondrial fraction of liver; fed 1 mmole TTA/day/kg, 6 days; control 8.32 ± 1.42
Excerpt: as §1
(§3) Male Wistar Charles River rats weighing 200-250 g at the start of the experiment were housed in metal wire cages in a temperature (22±1° C.) and light-controlled (light from 7.00 a.m. to 7.00 p.m.) room. They were given free access to chow and water. […] Weight gain and food intake were recorded daily. […]
(§4) Freshly isolated livers from individual male wistar rats, were homogenised in ice-cold sucrose buffer (0.25 M sucrose, 10 mM HEPES (pH 7.4) and 2 mM EDTA). […] Acid soluble products were measured in post-nuclear fractions, using [1-^14C]-palmitoyl-CoA (Radiochemical Centre, Amersham, England) as substrates as described in literature.^15 Carnitine palmitoyltransferase-II activities were measured in the mitochondrial fraction essentially as described by Bremer^16 and 3-hydroxy-3-methylglutharyl-CoA synthase was measured according to Clinkenbeard et al.^17 in the post-nuclear fraction. […]

Fatty acyl-CoA oxidase = Fatty acyl-CoA oxidase activity in rat liver homogenate after feeding; type: in vivo; details: fed 1 mmole TTA/day/kg, 6 days, control 16.50 ± 4.74
Excerpt: as §1, §3, §4

[4] = system: 3-Hydroxy-3-methylglutharyl-CoA synthase; assay: 3-Hydroxy-3-methylglutharyl-CoA synthase activity in rat liver homogenate after feeding; type: in vivo; details: fed 1 mmole TTA/day/kg, 6 days; for 3-Hydroxy-3-methylglutharyl-CoA synthase Enzyme activity: rat liver homogenate, control 28.23 ± 4.43
Excerpt: as §1
Male Wistar Charles River rats weighing 200-250 g at the start of the experiment were housed in metal wire cages in a temperature (22±1° C.) and light-controlled (light from 7.00 a.m. to 7.00 p.m.) room. They were given free access to chow and water. They were fed a Standard Laboratory Rat Chow R-34-EWOS-ALAB (EWOS Sweden) grower rat maintenance chow. Two rats were housed per cage. The animals were acclimatized for at least 5 days before the start of the experiments. Weight gain and food intake were recorded daily. […]
Freshly isolated livers from individual male wistar rats, were homogenised in ice-cold sucrose buffer (0.25 M sucrose, 10 mM HEPES (pH 7.4) and 2 mM EDTA). […] Acid soluble products were measured in post-nuclear fractions, using [1-^14C]-palmitoyl-CoA (Radiochemical Centre, Amersham, England) as substrates as described in literature.^15 Carnitine palmitoyltransferase-II activities were measured in the mitochondrial fraction essentially as described by Bremer^16 and 3-hydroxy-3-methylglutharyl-CoA synthase was measured according to Clinkenbeard et al.^17 in the post-nuclear fraction. Fatty acyl-CoA oxidase was measured in the post-nuclear fraction by the coupled assay described by Small et al.^18 The production of hydrogen peroxide was measured by monitoring the increase in dichlorofluorescein absorbance in the presence of palmitoyl-CoA.

[5] = system: Palmitoyl-CoA oxidation in rat liver homogenate; assay: Palmitoyl-CoA oxidation in rat liver homogenate after feeding; type: in vivo; details: fed 1 mmole TTA/day/kg, 6 days, control 0.75 ± 0.06
Excerpt: as §1, §3, §4

SMILES | hepatic Triacylglycerol content (male Wistar rats [1]) | decrease in the hepatic triacylglycerol level compared to the control (largest decrease) (male Wistar rats [1]; fed 1 mmole TTA/day/kg) | decrease in plasma triacylglycerol and cholesterol levels compared to the control (largest decrease) (male Wistar rats [2]; fed 1 mmole TTA/day/kg) | plasma Triacylglycerol (male Wistar rats [2]) | plasma Cholesterol (male Wistar rats [2]) | carnitine palmitoyltransferase-II Enzyme activity [3] | Fatty acyl-CoA oxidase Enzyme activity (Fatty acyl-CoA oxidase) | increased 3-hydroxy-3-methylglutharyl-CoA synthase activity relative to that after feeding non-esterified TTA [4] | 3-Hydroxy-3-methylglutharyl-CoA synthase Enzyme activity [4] | Palm-CoA oxidised [5]
CCCCCCCCCCCCCCSCC(=O)OC[C@H](COP(=O)([O-])OCC[N+](C)(C)C)OC(=O)CSCCCCCCCCCCCCCC [TTA-PC, 1,2-ditetradecylthioacetoyl-sn-glycero-3-phosphocholine] | 2.53 ± 0.43^a μmol/mg protein | 30% | 60% | 0.47 ± 0.21^a,b mmol/L | 0.74 ± 0.20^a mmol/L | 31.96 ± 2.63^a,b nmol/mg/min | 129.48 ± 15.08^a,b nmol/mg/min | more than three times as large | 97.77 ± 20.51^a,b nmol/mg/min | 1.39 ± 0.15^a nmol/mg/min
CCCCCCCCCCCCCCSCC(=O)OCC(COC(=O)CSCCCCCCCCCCCCCC)OC(=O)CSCCCCCCCCCCCCCC [TTA-TAG, 1,2,3-Tritetradecylthioacetoyl-sn-glycerol] | 2.88 ± 0.50^a μmol/mg protein | – | – | 0.56 ± 0.21^a mmol/L | 1.18 ± 0.12^a mmol/L | 17.88 ± 4.37^a nmol/mg/min | 49.87 ± 22.51^a nmol/mg/min | – | 40.35 ± 6.16^a nmol/mg/min | 1.37 ± 0.08^a nmol/mg/min
